Each structure is given as a SMILES string. Counter-ions that a name gives are not always drawn.

Chain of human SPR (P35270 whole entry): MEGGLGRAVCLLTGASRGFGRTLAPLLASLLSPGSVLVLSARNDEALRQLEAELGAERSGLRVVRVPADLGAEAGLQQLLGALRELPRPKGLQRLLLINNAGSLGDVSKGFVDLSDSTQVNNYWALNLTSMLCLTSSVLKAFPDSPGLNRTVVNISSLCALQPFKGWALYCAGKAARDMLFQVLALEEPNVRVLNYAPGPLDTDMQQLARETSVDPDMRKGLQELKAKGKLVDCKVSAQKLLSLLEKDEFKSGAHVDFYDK

In the first experiment the target is human SPR (Homo sapiens (Human), UniProt P35270). The experiment in a line: Evaluation Example 2: Measurement of human SPR inhibitory activity (seven concentrations, sepiapterin absorbance at 420 nm). To be noted: Evaluation Example 2, seven concentrations 0.14 nM to 100 nM, 240 minutes at room temperature, read-out: IC50. Format: biochemical. A digest of the protocol:
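His-tagged full-length human SPR (1-261) was expressed in E. coli and the tag removed. Enzyme at 150 ng/mL in 100 mM Tris-HCl pH 7.5/0.01% BSA was mixed with compound (0.14–100 nM, seven points), 120 μM sepiapterin and 160 μM NADPH, both as added-solution concentrations. After 240 min at room temperature, remaining sepiapterin was read at 420 nm to give percent inhibition.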
For `CC(C)Cn1c(=O)c(C(=O)NC2CC2)c(O)n2ncc(/C=C/C(=O)N(C)CC(C)(C)O)c12` [compound 518, (E)-N-Cyclopropyl-7-hydroxy-3-(3-((2-hydroxy-2-methylpropyl)(methyl)amino)-3-oxoprop-1-en-1-yl)-4-isobutyl-5-oxo-4,5-dihydropyrazolo[1,5-a]pyrimidine-6-carboxamide], the IC50 is 0.66 nM.
In the case of `CC(C)(C)Cn1c(=O)c(C(=O)NC2CC2)c(O)n2nc(-c3cc(C#N)cnc3N)cc12` [Synthesis Example 291, 2-(2-Amino-5-cyanopyridin-3-yl)-N-cyclopropyl-7-hydroxy-4-neopentyl-5-oxo-4,5-dihydropyrazolo[1,5-a]pyrimidine-6-carboxamide], the IC50 turned out to be 6.42 nM.
As for `Cc1nn2c(O)c(C(=O)NC3CC3)c(=O)n(CC(C)C)c2c1/C=C/C(=O)N1CCCC12CCCN(C)C2` (stereo not shown) [Synthesis Example 662, (E)-N-Cyclopropyl-7-hydroxy-4-isobutyl-2-methyl-3-(3-(7-methyl-1,7-diazaspiro[4.5]decan-1-yl)-3-oxoprop-1-en-1-yl)-5-oxo-4,5-dihydropyrazolo[1,5-a]pyrimidine-6-carboxamide], the IC50 was found to be 1.08 nM.
On the same count and under the same terms, as for `Cc1nn2c(O)c(C(=O)NC3CC3)c(=O)n(CC(C)C)c2c1/C=C/C(=O)N1[C@H](C)COC[C@H]1C` [compound 576, N-Cyclopropyl-3-((E)-3-((3R,5R)-3,5-dimethylmorpholino)-3-oxoprop-1-en-1-yl)-7-hydroxy-4-isobutyl-2-methyl-5-oxo-4,5-dihydropyrazolo[1,5-a]pyrimidine-6-carboxamide], the figure is 0.86 nM; as for `CC(C)Cn1c(=O)c(C(=O)NC2CC2)c(O)n2ncc(/C=C/C(C)(C)O)c12` [Synthesis Example 265, (E)-N-Cyclopropyl-7-hydroxy-3-(3-hydroxy-3-methylbut-1-en-1-yl)-4-isobutyl-5-oxo-4,5-dihydropyrazolo[1,5-a]pyrimidine-6-carboxamide], 0.68 nM.
Still for that read-out and setting: as for `CCN1CCC2(CCCN2C(=O)/C=C/c2c(C)nn3c(O)c(C(=O)NC4CC4)c(=O)n(CC(C)C)c23)CC1` [Synthesis Example 667, (E)-N-Cyclopropyl-3-(3-(8-ethyl-1,8-diazaspiro[4.5]decan-1-yl)-3-oxoprop-1-en-1-yl)-7-hydroxy-4-isobutyl-2-methyl-5-oxo-4,5-dihydropyrazolo[1,5-a]pyrimidine-6-carboxamide], the figure is 0.94 nM.
Still for that read-out and setting: as for `CC(C)Cn1c(=O)c(C(=O)NC2CC2)c(O)n2ncc(/C=C/C(=O)N3CC(F)C3)c12` [compound 554, (E)-N-Cyclopropyl-3-(3-(3-fluoroazetidin-1-yl)-3-oxoprop-1-en-1-yl)-7-hydroxy-4-isobutyl-5-oxo-4,5-dihydropyrazolo[1,5-a]pyrimidine-6-carboxamide], the figure is 0.77 nM.
Consider `CC(C)Cn1c(=O)c(C(=O)NC2CC2)c(O)n2ncc(/C=C/C(=O)N3CCC[C@@H]3C(C)(C)O)c12` [compound 589, (R,E)-N-Cyclopropyl-7-hydroxy-3-(3-(2-(2-hydroxypropan-2-yl)pyrrolidin-1-yl)-3-oxoprop-1-en-1-yl)-4-isobutyl-5-oxo-4,5-dihydropyrazolo[1,5-a]pyrimidine-6-carboxamide], for which the IC50 was 1.34 nM.
The same measure, in the same setting: as for `Cc1nn2c(O)c(C(=O)NC3CC3)c(=O)n(CC(C)C)c2c1/C=C/C(=O)N1CCC[C@H]1C(F)F` [Synthesis Example 634, (S,E)-N-Cyclopropyl-3-(3-(2-(difluoromethyl)pyrrolidin-1-yl)-3-oxoprop-1-en-1-yl)-7-hydroxy-4-isobutyl-2-methyl-5-oxo-4,5-dihydropyrazolo[1,5-a]pyrimidine-6-carboxamide], the figure is 1.21 nM; as for `CC[C@@H]1COCCN1C(=O)/C=C/c1c(C)nn2c(O)c(C(=O)NC3CC3)c(=O)n(CC(C)C)c12` [compound 573, (R,E)-N-Cyclopropyl-3-(3-(3-ethylmorpholino)-3-oxoprop-1-en-1-yl)-7-hydroxy-4-isobutyl-2-methyl-5-oxo-4,5-dihydropyrazolo[1,5-a]pyrimidine-6-carboxamide], 0.88 nM.
Take `Cc1nn2c(O)c(C(=O)NC3CC3)c(=O)n(CC(C)C)c2c1/C=C/C(=O)N1CCOc2cnccc21` [Synthesis Example 675, (E)-N-Cyclopropyl-3-(3-(2,3-dihydro-1H-pyrido[3,4-b][1,4]oxazin-1-yl)-3-oxoprop-1-en-1-yl)-7-hydroxy-4-isobutyl-2-methyl-5-oxo-4,5-dihydropyrazolo[1,5-a]pyrimidine-6-carboxamide]: the IC50 stood at 0.99 nM.
On the same count and under the same terms, as for `CC(C)Cn1c(=O)c(C(=O)NC2CC2)c(O)n2ncc(/C=C/C(=O)N3CCC[C@H]3C#N)c12` [compound 495, (S,E)-3-(3-(2-Cyanopyrrolidin-1-yl)-3-oxoprop-1-en-1-yl)-N-cyclopropyl-7-hydroxy-4-isobutyl-5-oxo-4,5-dihydropyrazolo[1,5-a]pyrimidine-6-carboxamide], the figure is 0.91 nM.
Take `CCc1nn2c(O)c(C(=O)NC3CC3)c(=O)n(CC(C)C)c2c1/C=C/C(=O)N1CCOCC1` [compound 586, (E)-N-Cyclopropyl-2-ethyl-7-hydroxy-4-isobutyl-3-(3-morpholino-3-oxoprop-1-en-1-yl)-5-oxo-4,5-dihydropyrazolo[1,5-a]pyrimidine-6-carboxamide]: the IC50 amounted to 0.99 nM.
The same measure, in the same setting: as for `CC(C)Cn1c(=O)c(C(=O)NC2CC2)c(O)n2ncc(/C=C/C(=O)N(C)CC#N)c12` [compound 498, (E)-3-(3-((Cyanomethyl)(methyl)amino)-3-oxoprop-1-en-1-yl)-N-cyclopropyl-7-hydroxy-4-isobutyl-5-oxo-4,5-dihydropyrazolo[1,5-a]pyrimidine-6-carboxamide], the figure is 0.72 nM; as for `CC(C)Cn1c(=O)c(C(=O)NC2CC2)c(O)n2ncc(/C=C/C(=O)N3C[C@@H](C)O[C@H](C)C3)c12` [compound 491], 0.82 nM.
Same read-out and setting: as for `CC(C)Cn1c(=O)c(C(=O)NC2CC2)c(O)n2ncc(/C=C/C(=O)N(C)CCC#N)c12` [compound 524, (E)-3-(3-((2-Cyanoethyl)(methyl)amino)-3-oxoprop-1-en-1-yl)-N-cyclopropyl-7-hydroxy-4-isobutyl-5-oxo-4,5-dihydropyrazolo[1,5-a]pyrimidine-6-carboxamide], the figure is 0.72 nM; as for `CC(C)Cn1c(=O)c(C(=O)NC2CC2)c(O)n2ncc(/C=C/C(=O)N3C[C@H](C)O[C@@H](C)C3)c12` [compound 490, N-Cyclopropyl-3-((E)-3-((2S,6S)-2,6-dimethylmorpholino)-3-oxoprop-1-en-1-yl)-7-hydroxy-4-isobutyl-5-oxo-4,5-dihydropyrazolo[1,5-a]pyrimidine-6-carboxamide], 0.88 nM; as for `CC(C)Cn1c(=O)c(C(=O)NC2CC2)c(O)n2nc(/N=C/N(C)C)cc12` [Synthesis Example 363, (E)-N-Cyclopropyl-2-(((dimethylamino)methylene)amino)-7-hydroxy-4-isobutyl-5-oxo-4,5-dihydropyrazolo[1,5-a]pyrimidine-6-carboxamide hydrochloride], 1.61 nM.
Take `CC(C)Cn1c(=O)c(C(=O)NC2CC2)c(O)n2ncc(/C=C/C(=O)NC(C)(C)C3CC3)c12` [compound 493]: the IC50 worked out at 0.94 nM.
`Cc1nn2c(O)c(C(=O)NC3CC3)c(=O)n(CC(C)C)c2c1/C=C/C(=O)N1C[C@@H](C)OC[C@H]1C` [Synthesis Example 644, N-Cyclopropyl-3-((E)-3-((2R,5R)-2,5-dimethylmorpholino)-3-oxoprop-1-en-1-yl)-7-hydroxy-4-isobutyl-2-methyl-5-oxo-4,5-dihydropyrazolo[1,5-a]pyrimidine-6-carboxamide]: the IC50 was found to be 0.91 nM.

Staying with this experiment, now noted: sepiapterin absorbance, Table 41, read-out: concentration at 50% inhibition of human SPR (IC50).
`COC[C@H]1COCCN1C(=O)/C=C/c1c(C)nn2c(O)c(C(=O)NC3CC3)c(=O)n(CC(C)C)c12` [Synthesis Example 683, (S,E)-N-Cyclopropyl-7-hydroxy-4-isobutyl-3-(3-(3-(methoxymethyl)morpholino)-3-oxoprop-1-en-1-yl)-2-methyl-5-oxo-4,5-dihydropyrazolo[1,5-a]pyrimidine-6-carboxamide]: the IC50 was 0.82 nM.
Still for that read-out and setting: as for `CC(C)Cn1c(=O)c(C(=O)NC2CC2)c(O)n2ncc(/C=C/C(=O)N3CCc4cc(C#N)ccc43)c12` [Synthesis Example 732, (E)-3-(3-(5-Cyanoindolin-1-yl)-3-oxoprop-1-en-1-yl)-N-cyclopropyl-7-hydroxy-4-isobutyl-5-oxo-4,5-dihydropyrazolo[1,5-a]pyrimidine-6-carboxamide], the figure is 1.7 nM; as for `CC(C)Cn1c(=O)c(C(=O)NC2CC2)c(O)n2ncc(/C=C/C(=O)N3CCc4cnccc43)c12` [Synthesis Example 740, (E)-N-Cyclopropyl-3-(3-(2,3-dihydro-1H-pyrrolo[3,2-c]pyridin-1-yl)-3-oxoprop-1-en-1-yl)-7-hydroxy-4-isobutyl-5-oxo-4,5-dihydropyrazolo[1,5-a]pyrimidine-6-carboxamide], 1.81 nM; as for `CC(C)Cn1c(=O)c(C(=O)NC2CC2)c(O)n2ncc(/C=C/C(=O)N3CCc4ccccc43)c12` [Synthesis Example 725, (E)-N-Cyclopropyl-7-hydroxy-3-(3-(indolin-1-yl)-3-oxoprop-1-en-1-yl)-4-isobutyl-5-oxo-4,5-dihydropyrazolo[1,5-a]pyrimidine-6-carboxamide], 3.61 nM.
With `Cc1nn2c(O)c(C(=O)NC3CC3)c(=O)n(CC(C)C)c2c1/C=C/C(=O)N1C[C@@H](F)[C@H](F)C1` (single isomer, unassigned; isomer a) [Synthesis Example 755, N-Cyclopropyl-3-((E)-3-(trans-3,4-difluoropyrrolidin-1-yl)-3-oxoprop-1-en-1-yl)-7-hydroxy-4-isobutyl-2-methyl-5-oxo-4,5-dihydropyrazolo[1,5-a]pyrimidine-6-carboxamide (Isomer A)], the IC50 came to 0.61 nM.
